The values below come from patent US20080019916A1, “Methods and pharmaceuticals for treating muscle insulin resistance and related conditions” (University of Tasmania, priority 2001, published 2008).

For one assay, the system named is anaesthetised rats. As to the kind of experiment: hyperinsulinaemic euglycaemic clamp in anaesthetised rats with 1-MX metabolism, glucose uptake and haemodynamic monitoring. Format: in vivo, rat. An excerpt: From present knowledge there would appear to be at least three possible mechanisms to account for insulin-mediated capillary recruitment in skeletal muscle. Firstly and most likely, insulin may act at insulin receptors on endothelial cells and an IRS-1/2, PI3-K pathway to activate eNOS to produce NO, which in turn permeates adjacent vascular smooth muscle cells to activate soluble guanylyl cyclase and lower the vascular tone of pre-capillary sphincters. In favour of this mechanism is the fact that this process is NO-dependent and is thus consistent with our preliminary data (FIG. 4). There is compelling evidence that insulin acts directly through insulin receptors on endothelial cells to control nutritive capillary flow in skin. Secondly, insulin may act at insulin receptors on the vascular smooth muscle cells (22) via IRS-1/2, PI3-K, NOS, cGMP, MBP (myosin bound phosphatase) sequence to cause vasorelaxation. This mechanism would be NO-dependent, free of endothelial cell involvement in signalling and attractive as TNFα is known to inhibit insulin signalling in vascular smooth muscle cells, although to date this has been restricted to the ERK1/2 activation step (23). This mechanism would also lead ultimately to the activation of guanylyl cyclase and the production of cyclic GMP. Thirdly, insulin may act at insulin receptors on skeletal muscle to activate glucose transport and metabolism by the IRS-1/2, PI3-K, GLUT4 pathway to produce a metabolite (e.g. adenosine) that permeates adjacent tissue to react with appropriate receptors on endothelial/vascular smooth muscle cells to result in vasorelaxation. […] FIG. 4. The effect of L-NAME on insulin mediated increases in hindleg glucose uptake (FIG. 4a) and 1-MX metabolism (FIG. 4b) was examined. Euglycemic clamp conditions (10 mU/min/kg) were conducted for 2 h. […] This latter mechanism would resemble that occurring in exercise where vasodilatory metabolite(s) are released locally by working muscle to facilitate local blood flow and would be inhibited by agents (e.g. glucosamine) that inhibit muscle glucose metabolism. All three mechanisms should be wortmannin sensitive as PI3-K is expected to be involved. A variant of this third mechanism is where a form of NOS is activated in skeletal muscle independently of glucose metabolism. NO could then permeate neighbouring tissue as above. The terminal half of this fourth possible mechanism should be simulated by AMPK activation with AICAR addition (24). Overall, given that the mechanism of capillary recruitment by insulin in rat muscle is NO-dependent (FIG. 4) and that NO acts by producing cyclic GMP, agents that might enhance capillary recruitment by insulin should be targeted to enhance insulin's production of NO or cyclic GMP. In principle, 1-methylxanthine (1-MX) is an exogenous substrate for an enzyme located predominantly in the nutritive capillary endothelial cells (much less so in the non-nutritive route and myocytes). Consequently, passage of blood borne 1-MX through the nutritive vascular route leads to its conversion to the product 1-methylurate (1-MU). Chromatographic analysis of arterial and venous samples for 1-MX and 1-MU together with the total blood flow rate over the muscle bed allows the calculation of 1-MX metabolism. A number of our studies using the perfused rat hindlimb have shown tight correlation between nutritive flow (or the proportion of nutritive/non-nutritive flow) and 1-MX metabolism (12,13). Assay of new drugs acting to increase capillary recruitment in the presence of endogenous or exogenous insulin. This is done in an optional two tier manner, firstly in anaesthetized rats using the hyperinsulinaemic euglycaemic clamp (14) and secondly, in human forearm using a localized hyperinsulinaemic euglycaemic clamp (17). The initial testing in rats is optional, but allows rapid identification of those agents likely to be effective in humans. […]

Assay [1] deals with skeletal muscle of the rat hindlimb. As to the kind of experiment: contrast enhanced ultrasound/microbubbles (CEU) measurement of capillary blood volume in rat hindlimb muscle. Type of assay: in vivo. An excerpt: A second method was devised using the latest technologies in ultrasound. The ultrasound method relies on the increased echogenicity of albumin microbubbles which are continuously infused intravenously during data acquisition. The acoustic signal that is generated from the microbubbles when exposed to ultrasound produces tissue opacification which is proportional to the number of microbubbles within the ultrasound beam. Using harmonic pulsing methods essentially all microbubbles within the ultrasound beam are destroyed in response to a single pulse of high-energy ultrasound and an image is obtained. In the time interval between subsequent pulsing episodes, microbubbles flowing into the tissue are replenished within the beam and affect the intensity of the signal from the next high energy pulse. Repeating this process with pulse delays between 50 msec and 20 sec, the beam will be fully replenished and further increases in the time between each pulsing interval will not produce a change to tissue opacification. The rate of microbubble reappearance within the ultrasound beam provides an indication of capillary velocity and the degree of tissue opacification provides a measurement of capillary blood volume (CBV). Images are background-subtracted from images from a pulsing interval of 1000 ms which represents the replenishment of arteries and arterioles thus providing a measurement of capillary flow. The plateau tissue opacification (measured as videointensity) is the determination of capillary blood volume. Using this approach, changes in capillary blood volume in response to insulin and exercise have recently been assessed in the skeletal muscle of the rat hindlimb in vivo and compared to data obtained using 1-MX metabolism (ref 16; FIG. 1). FIG. 1. Comparison of the effect of saline, insulin (3 mU/min/kg, euglycemic clamp×120 min) or muscle contraction (2 Hz, 1 ms duration, monophasic square waves×10 min) on capillary blood volume as measured by microbubble videointensity using contrast enhanced ultrasound (FIG. 1a) or the hindlimb extraction of 1-MX (FIG. 1b) measured under identical conditions. […] Exercise is regarded by most physiologists as a “bench-mark” stimulus for capillary recruitment. […] A particular advantage of the ultrasound method is that it is relatively non-invasive and is suitable for human use (17). This opens up possibilities for its use in diagnosis in terms of impaired capillary recruitment in response to insulin and the monitoring of outcomes from therapeutic interventions that might act by increasing capillary recruitment. The ultrasound method relies on the increased echogenicity of albumin microbubbles that are continuously infused intravenously during data acquisition. […]

For assay [2] the test system is unchanged. To be noted: physiologic doses of insulin (3 mU/min/kg clamp); cited from earlier work.
Setting [3] is: infused with sub-maximal physiologic dose of insulin, vs insulin alone, FIG. 5b.
Setting [4] is: insulin 3 mU/min/kg, anesthetized rat, before vs after, FIG. 7c.

As to `NC(=O)c1ncn([C@@H]2O[C@H](CO)[C@@H](O)[C@H]2O)c1N` [AICAR, 5-aminoimidazole-4-carboxamide-1-β-D-ribofuranoside], the “insulin-mediated hindleg glucose uptake” value with anaesthetised rats (infused with insulin, vs insulin alone, P<0.05, FIG. 6b) was “markedly enhanced”. In addition, the “capillary recruitment as indicated by CEU (capillary blood volume)” value in assay [1] (infused alone, without insulin, FIG. 6a) was “recruited capillary flow on its own”.
For the compound `COC(=O)[C@@H](N)CCCNC(=N)N[N+](=O)[O-]` [L-NAME], the “insulin-mediated increase in femoral blood flow (FBF)” value with anaesthetised rats (euglycemic clamp 10 mU/min/kg, 2 h, n=5) is reported as “blocked the increase in FBF”. Further, in the assay with anaesthetised rats (euglycemic clamp 10 mU/min/kg, 2 h, n=5, raised from 100±4), the “mean arterial blood pressure” value is on record as 125±5 mmHg.
In the case of `CCCOc1ccccc1-c1nc(=O)c2[nH]nnc2[nH]1` [Zaprinast, 1,4-dihydro-5-(2-propoxyphenyl)-7H-1,2,3-triazolo(4,5-d)pyrimidin-7-one], in the assay with anaesthetised rats (infused with sub-maximal physiologic dose of insulin, vs insulin alone, FIG. 5a), the “insulin-mediated capillary recruitment (hindleg 1-MX metabolism)” value is given as “significantly (P<0.05) enhanced”. Also, in the assay on anaesthetised rats (setting [3]), the “insulin-mediated glucose appearance (Ra)” value is on record as “significantly (P<0.05) enhanced” and the “insulin-mediated glucose disposal (Rd)” value is “significantly (P<0.05) enhanced”.
Regarding TNFα, the “effect on insulin-mediated capillary recruitment” value in the assay on anaesthetised rats (rats treated with the cytokine in vivo) was “completely block”.
As to “insulin: hormone infused in euglycemic clamp”, in assay [2], the “increase in capillary blood volume” value was 2-3 fold. In addition, the “capillary blood volume (microbubble videointensity, CEU)” value in assay [1] (euglycemic insulin clamp 3 mU/min/kg, 120 min, vs baseline/saline, FIG. 1a) was “marked increases”. In addition, in assay [1] (setting [4]), the “plateau videointensity (A), microvascular volume” value is recorded as “clearly higher” and the “rate of microvascular filling (β)” value is given as “no change”.
